This is an account of results in ChEMBL document CHEMBL4842322, “A naphthalimide-polyamine conjugate preferentially accumulates in hepatic carcinoma metastases as a lysosome-targeted antimetastatic agent” (Eur J Med Chem, 2021).

For orientation: IC50 means the point on the concentration scale where inhibition reaches its midpoint. The term inhibition in vivo denotes the percentage by which the read-out fell short of the control.

Data set [1] concerns HepG2. Put plainly: Cytotoxicity against human HepG2 cells assessed as inhibition of cell growth incubated for 48 hrs by MTT assay. It counts as functional, cell-based. The settings on record: HepG2, 48 h. Background: Tetrazolium dyes change colour on reduction, which living cells bring about.
The subject of data set [2] is Huh-7. Put plainly: Cytotoxicity against human Huh-7 cells assessed as inhibition of cell growth incubated for 48 hrs by MTT assay. In kind it is functional, cell-based. Conditions: Huh-7, 48 h.
In data set [3] the test system is MDA-MB-231. Put plainly: Cytotoxicity against human MDA-MB-231 cells assessed as inhibition of cell growth incubated for 48 hrs by MTT assay. It counts as functional, cell-based. Conditions: MDA-MB-231, 48 h.
The subject of data set [4] is MCF7. Nature of the data set: Cytotoxicity against human MCF7 cells assessed as inhibition of cell growth incubated for 48 hrs by MTT assay. It counts as functional, cell-based. Conditions: MCF7, 48 h.
Data set [5] deals with A549. Nature of the data set: Cytotoxicity against human A549 cells assessed as inhibition of cell growth incubated for 48 hrs by MTT assay. It counts as functional, cell-based. The settings on record: A549, 48 h.
Data set [6] has as its system A549. Nature of the data set: Cytotoxicity against cisplatin-resistant human A549 cells assessed as inhibition of cell growth incubated for 48 hrs by MTT assay. Conditions: A549, 48 h. In kind it is functional, cell-based.
Data set [7] can be described thus: Resistance factor, ratio of IC50 for cisplatin-resistant human A549 cells to IC50 for human A549 cells. It counts as functional.
Data set [8] has as its system Huh-7. Put plainly: Cytotoxicity against human Huh-7 cells assessed as inhibition of cell growth measured after 24 hrs by MTT assay. In kind it is functional, cell-based. Conditions: Huh-7, 24 h.
Data set [9] has as its system L02. Nature of the data set: Cytotoxicity against human HL7702 cells assessed as inhibition of cell growth measured after 24 hrs by MTT assay. Conditions: L02, 24 h. In kind it is cell-based.
A short description of data set [10]: Selectivity index, ratio of IC50 for human HL7702 cells to IC50 for human HepG2 cells. In kind it is toxicity. The settings on record: HL7702 cells and HepG2 cells, read-out: Ratio IC50.
The nature of data set [11]: Selectivity index, ratio of IC50 for human HL7702 cells to IC50 for human Huh-7 cells. The settings on record: HL7702 cells and Huh-7 cells, read-out: Ratio IC50. It counts as toxicity.
Data set [12] in a line: Antitumor activity against human HCC cells xenografted in BALB/c mouse assessed as inhibition of tumor weight at 5 mg/kg, iv administered once daily for 7 days. Conditions: 168 h, time 7 day. It counts as functional. (Xenograft models place foreign cells or tissue in a host animal.)
Data set [13] can be described thus: Antimetastatic activity against human HCC cells xenografted in BALB/c mouse assessed as reduction lung metastatic nodules at 5 mg/kg, iv administered once every 2 days for 14 days. It counts as functional. The settings on record: 336 h, time 14 day.

Where only a bound is given, the exact number is not on record here.

Turning to `NCCCCNCCCCN1C(=O)c2cccc3cc(NC(=O)CN)cc(c23)C1=O`, the half-maximal inhibitory concentration (IC50) is over 30 µM in data set [1]; 28.7 µM in data set [2]; over 30 µM in data set [3]; over 30 µM in data set [4]; over 30 µM in data set [5]; over 30 µM in data set [6].

For `CN(C)CCN1C(=O)c2cccc3cc(NC(=O)CN)cc(c23)C1=O`, the concentration for half-maximal inhibition (IC50) in [1] was over 30 µM; in data set [2] it was 12.7 µM; in [3], over 30 µM; in data set [4], over 30 µM; in data set [5], over 30 µM; in [6], over 30 µM.

Turning to `CCCNCCCNCCCN1C(=O)c2cccc3cc(NC(=O)CN)cc(c23)C1=O`, the half-maximal inhibitory concentration (IC50) in data set [1] was over 30 µM; in [2] it was 7.54 µM; in [3], over 30 µM; in data set [4], over 30 µM; in data set [5], over 30 µM; in data set [6], over 30 µM.

As for `CN(C)CCN1C(=O)c2cccc3cc(N)cc(c23)C1=O` [AMONAFIDE], the IC50 in [2] came out at 8.52 µM; in data set [3], 15.2 µM; in [4], 10.9 µM; in data set [5], 23.5 µM; in data set [6], 9.56 µM; in [8], 8.52 µM. The IC50 in data set [9] is 11.6 µM. The “Ratio IC50” value in data set [7] is 0.41. The selectivity ratio was found to be 1.23 in data set [10] and 1.36 in data set [11]. The figures for the inhibition in vivo at 5 mg/kg in data set [12] and in [13] were 46.9% and 55.8%, respectively.

As for `CCCNCCCNCCCNCCCN1C(=O)c2cccc3c(NC(=O)CN)ccc(c23)C1=O`, the IC50 in data set [1] was over 30 µM; in [2] it was 5.39 µM; in [3], over 30 µM; in data set [4], over 30 µM; in data set [5] it was over 30 µM; in [6] it was over 30 µM.

For the molecule `NCCCCNCCCN1C(=O)c2cccc3cc(NC(=O)CN)cc(c23)C1=O`, the IC50 in [1], in data set [2], in data set [3], in data set [4], in [5] and in data set [6] was over 30 µM each time.

Consider `NCCCCNCCCCN1C(=O)c2cccc3c(NC(=O)CN)ccc(c23)C1=O`, for which the concentration for half-maximal inhibition (IC50) in [1] is over 30 µM; in [2], 22.9 µM; in data set [3] it was over 30 µM; in data set [4], over 30 µM; in data set [5], over 30 µM; in data set [6], over 30 µM.

As for `CCCNCCCNCCCNCCCN1C(=O)c2cccc3cc(NC(=O)CN)cc(c23)C1=O`, the IC50 in data set [1] was over 30 µM; in [2] it was 14.9 µM; in [3], over 30 µM; in [4] it was over 30 µM; in [5], over 30 µM; in [6], over 30 µM.

With `CCCNCCCN1C(=O)c2cccc3cc(NC(=O)CN)cc(c23)C1=O`, the 50% inhibitory concentration (IC50) in data set [1] is over 30 µM; in data set [2], 10.1 µM; in [3], over 30 µM; in data set [4] it was over 30 µM; in [5] it was over 30 µM; in data set [6], over 30 µM.
